Experimental data from PubChem BioAssay AID1259407 (Chemical Carcinogenesis Research Information System (CCRIS), 2018).
Activity calls are given as the source filed them. The rule behind the calls is not given here.

System: CCRIS mutagenicity, Ames/micronucleus/aberration tests
Assay: CCRIS mutagenicity studies
[1] = Test System: AMES SALMONELLA TYPHIMURIUM, Strain/Indicator: TA98, Metabolic Activation: NONE, Method: PREINCUBATION
[2] = Test System: AMES SALMONELLA TYPHIMURIUM, Strain/Indicator: TA98, Metabolic Activation: RAT, LIVER, S-9, PCB, Method: PREINCUBATION
[3] = Test System: AMES SALMONELLA TYPHIMURIUM, Strain/Indicator: TA100, Metabolic Activation: NONE, Method: PREINCUBATION
[4] = Test System: AMES SALMONELLA TYPHIMURIUM, Strain/Indicator: TA100, Metabolic Activation: RAT, LIVER, S-9, PCB, Method: PREINCUBATION
[5] = Test System: AMES SALMONELLA TYPHIMURIUM, Strain/Indicator: TA98, Metabolic Activation: NONE, Method: STANDARD PLATE
[6] = Test System: AMES SALMONELLA TYPHIMURIUM, Strain/Indicator: TA100, Metabolic Activation: NONE, Method: STANDARD PLATE

With `CNc1ccc2nc(C)c(C)nc2c1C` the mutagenic call [1] was “inactive; negative”, the mutagenic call [2] was “active; positive” and the mutagenic call [3] was “inactive; negative”. For the same molecule, the mutagenic call [4] was “active; positive”.
For `CCC(C)ON=O` (configuration not stated), the mutagenic call (Test System: AMES SALMONELLA TYPHIMURIUM, Strain/Indicator: TA98, Metabolic Activation: HAMSTER, LIVER, S-9, AROCLOR 1254, Method: STANDARD PLATE) was “inactive; negative”, the mutagenic call [5] was “inactive; negative” and the mutagenic call (Test System: AMES SALMONELLA TYPHIMURIUM, Strain/Indicator: TA98, Metabolic Activation: RAT, LIVER, S-9, AROCLOR 1254, Method: STANDARD PLATE) was “inactive; negative”. For the same molecule, the mutagenic call (Test System: AMES SALMONELLA TYPHIMURIUM, Strain/Indicator: TA100, Metabolic Activation: HAMSTER, LIVER, S-9, AROCLOR 1254, Method: STANDARD PLATE) was “inactive; negative”, the mutagenic call [6] was “inactive; negative” and the mutagenic call (Test System: AMES SALMONELLA TYPHIMURIUM, Strain/Indicator: TA100, Metabolic Activation: RAT, LIVER, S-9, AROCLOR 1254, Method: STANDARD PLATE) was “inactive; negative”. For the same molecule, the mutagenic call (Test System: AMES SALMONELLA TYPHIMURIUM, Strain/Indicator: TA1535, Metabolic Activation: HAMSTER, LIVER, S-9, AROCLOR 1254, Method: STANDARD PLATE) was “active; positive”, the mutagenic call (Test System: AMES SALMONELLA TYPHIMURIUM, Strain/Indicator: TA1535, Metabolic Activation: NONE, Method: STANDARD PLATE) was “inactive; negative” and the mutagenic call (Test System: AMES SALMONELLA TYPHIMURIUM, Strain/Indicator: TA1535, Metabolic Activation: RAT, LIVER, S-9, AROCLOR 1254, Method: STANDARD PLATE) was “active; positive”. The mutagenic call (Test System: AMES SALMONELLA TYPHIMURIUM, Strain/Indicator: TA1537, Metabolic Activation: HAMSTER, LIVER, S-9, AROCLOR 1254, Method: STANDARD PLATE) was “inactive; negative”, the mutagenic call (Test System: AMES SALMONELLA TYPHIMURIUM, Strain/Indicator: TA1537, Metabolic Activation: NONE, Method: STANDARD PLATE) was “inactive; negative” and the mutagenic call (Test System: AMES SALMONELLA TYPHIMURIUM, Strain/Indicator: TA1537, Metabolic Activation: RAT, LIVER, S-9, AROCLOR 1254, Method: STANDARD PLATE) was “inactive; negative”. The mutagenic call (Test System: MOUSE LYMPHOMA, Strain/Indicator: L5178Y (TK+/TK-), Metabolic Activation: NONE, Method: SUSPENSION/PLATE) was “active; positive. reevaluation of results: positive” and the mutagenic call (Test System: MOUSE LYMPHOMA, Strain/Indicator: L5178Y (TK+/TK-), Metabolic Activation: RAT, LIVER, S-9, AROCLOR 1254, Method: SUSPENSION/PLATE) was “active; positive. reevaluation of results: positive”.
`Nc1ncnc2c1ncn2[C@@H]1O[C@H](CO)C[C@H]1O` was tested, and the mutagenic call [5] was “active; positive”, the mutagenic call (Test System: AMES SALMONELLA TYPHIMURIUM, Strain/Indicator: TA98, Metabolic Activation: RAT, LIVER, S-9, POLYCHLORINATED BIPHENYLS, Method: STANDARD PLATE) was “active; positive” and the mutagenic call [6] was “active; positive”. For the same molecule, the mutagenic call (Test System: AMES SALMONELLA TYPHIMURIUM, Strain/Indicator: TA100, Metabolic Activation: RAT, LIVER, S-9, POLYCHLORINATED BIPHENYLS, Method: STANDARD PLATE) was “active; positive”.
In the case of `O=Cc1c([N+](=O)[O-])cccc1[N+](=O)[O-]`, the mutagenic call [1] was “active; positive”, the mutagenic call (Test System: AMES SALMONELLA TYPHIMURIUM, Strain/Indicator: TA98, Metabolic Activation: RAT, LIVER, S-9, PHENOBARBITAL AND 5,6-BENZOFLAVONE, Method: PREINCUBATION) was “inactive; negative” and the mutagenic call (Test System: AMES SALMONELLA TYPHIMURIUM, Strain/Indicator: TA100(1,8-DNP6), Metabolic Activation: NONE, Method: SUSPENSION/PLATE) was “active; positive”. The mutagenic call (Test System: AMES SALMONELLA TYPHIMURIUM, Strain/Indicator: TA100(NR), Metabolic Activation: NONE, Method: SUSPENSION/PLATE) was “active; positive”, the mutagenic call [3] was “active; positive” and the mutagenic call (Test System: AMES SALMONELLA TYPHIMURIUM, Strain/Indicator: TA100, Metabolic Activation: NONE, Method: SUSPENSION/PLATE) was “active; positive”. The mutagenic call (Test System: AMES SALMONELLA TYPHIMURIUM, Strain/Indicator: TA100, Metabolic Activation: RAT, LIVER, S-9, PHENOBARBITAL AND 5,6-BENZOFLAVONE, Method: PREINCUBATION) was “active; positive”.
With `O=C(CBr)c1oc([N+](=O)[O-])c(-c2ccccc2)c1-c1ccccc1` the mutagenic call (Test System: AMES SALMONELLA TYPHIMURIUM, Strain/Indicator: TA98(NR), Metabolic Activation: NONE, Method: STANDARD PLATE) was “active; positive”, the mutagenic call [5] was “active; positive” and the mutagenic call (Test System: AMES SALMONELLA TYPHIMURIUM, Strain/Indicator: TA100(NR), Metabolic Activation: NONE, Method: STANDARD PLATE) was “active; positive”. The mutagenic call [6] was “active; positive”.
With `Nc1ccc(Oc2ccc(N)c(Cl)c2)cc1Cl` the mutagenic call [1] was “inactive; negative”, the mutagenic call [2] was “active; positive” and the mutagenic call [3] was “inactive; negative”. The mutagenic call [4] was “active; positive”.
